Measurements: patent US11155636B2, “PRL3 antibody” (Agency for Science, Technology and Research, priority 2016, dated 2021)
Values belong to the molecule of their own block, whether it stands above or below them.

What was measured:
[1] = set-up: species or system Balb/C nude mice; conditions: mouse, in vivo
Protocol: WBC staining of mouse blood smears: After smearing a thin layer from a drop of fresh mouse blood on a glass slide, slides were baked at 37° C. for 1 h before flooding with modified Wright Giemsa stain (Sigma) for 1 min followed by washing with deionized water for 3 min. After drying, the stained slide was observed under microscope, with WBCs stained blue. Estimation of total WBC was performed under light microscopy (Olympus) by counting in ten visual fields in each slide and calculation using the equation WBCs/μl=(total number of counted WBC/number of fields)×2000. Full blood counts: Hematological analysis of mice samples was conducted by Quest Laboratories (Singapore).
We tested four treatment protocols: PBS control (Group 1), PRL3-zumab monotherapy (Group 2), PRL3-zumab+5-FU combination therapy (Group 3), or 5-FU monotherapy (Group 4). According to the treatment protocol, bi-weekly doses of PRL3-zumab (100 μg/dose) or 5-FU (30 mg/kg/dose) were administered individually, or in combination, intravenously into groups of nude mice carrying orthotopic PRL-3^+ SNU-484 gastric tumors.

[2] = test system: PRL-3^+ SNU-484 orthotopic gastric tumors; assay: Orthotopic gastric cancer model, SNU-484; format: in vivo, Balb/C nude mice
Protocol: Eight-week old male Balb/C nude mice obtained from the Biological Resource Centre (A*STAR, Singapore) were used for all animal models in this study. […] The stomach was taken out through the abdominal incision by surgical forceps, and cancer cells were injected into the subserosa layer. Subsequently, the stomach was placed back and the abdomen was sutured back in layers. […] The treatment regime commenced on day 2 post-inoculation of cancer cells in the gastric subserosa layer. […] PBS was used as a control in “untreated” mice. […] Tumor volumes were calculated using the formula: volume=0.4×tumor length×tumor width×tumor width.
10 μm-thick cryosection slides were fixed with 4% formalin for 20 min and incubated with 1% H2O2-PBS in the dark for 5 min. Washed slides were then blocked in PBS containing 10% goat serum and 1% BSA (Sigma) for 1 h at RT. Subsequently, slides were washed four times in PBS-0.05% Tween-20 with gentle shaking and incubated with goat anti-human labeled polymer-HRP (Dako) for 2 h before washing extensively and incubating with substrate-chromogen solution (Dako) for 10-20 min in the dark. Mounted slides were examined using a brightfield microscope (Olympus) and representative images were captured.

advanced HCC = conditions: cited from earlier work
[3] = test system: PRL-3+ and PRL-3− cancer cells; assay: In vitro cancer cell growth assay; format: cell-based; conditions: PRL-3+ and PRL-3− cells; PRL3-zumab up to 50 mg/mL

- overall animal activity [1]: reduction in overall animal activity
- reduction in peripheral WBC counts compared to control or PRL3-zumab monotherapy [1]: 5 fold
Compound: O=c1[nH]cc(F)c(=O)[nH]1 [5-FU, 5-fluorouracil]
- haematological profile (full blood counts) [1]: reduced neutrophil, lymphocyte, and monocyte counts
- mean tumor volume ([2]; four-group study, bi-weekly i.v. PRL3-zumab 100 μg/dose and/or 5-FU 30 mg/kg/dose, Day 28, n=5 per group): 1.76±0.52 cm^3
- numbers of infiltrating B cells and NK cells (immunofluorescence) ([2]; tumor sections, compared to untreated): lack of B or NK cell infiltration

Compound: CNC(=O)c1cc(Oc2ccc(NC(=O)Nc3ccc(Cl)c(C(F)(F)F)c3)cc2)ccn1 [Sorafenib]
- extended median survival (advanced HCC): 2.8 months

Compound: N.N.[Cl][Pt][Cl] [cisplatin]
- cancer cell growth in vitro [3]: dose-dependent, nonspecific cell killing
